Assays:
HCV NS5B = molecular target: T1, HCV NS5B (Hepatitis C virus genotype 1b, UniProt Q9WMX2); assay: HCV NS5B RdRp enzyme assay (standard or modified); format: biochemical; conditions: HCV NS5B RdRp genotype 1b; standard or modified enzyme assay not specified; read-out: IC50
T1 construct: The protein was expressed with an 18 amino acid C-terminal truncation to enhance the solubility; made in house; host or cells: E. coli BL21(DE3)
Protocol: HCV NS5B RdRp cloning, expression, and purification. The cDNA encoding the NS5B protein of HCV, genotype 1b, was cloned into the pET21a expression vector. The protein was expressed with an 18 amino acid C-terminal truncation to enhance the solubility. The E. coli competent cell line BL21(DE3) was used for expression of the protein. Cultures were grown at 37° C. for ˜4 hours until the cultures reached an optical density of 2.0 at 600 nm. The cultures were cooled to 20° C. and induced with 1 mM IPTG. Fresh ampicillin was added to a final concentration of 50 μg/ml and the cells were grown overnight at 20° C.
Cell pellets (3 L) were lysed for purification to yield 15-24 mgs of purified NS5B. The lysis buffer consisted of 20 mM Tris-HCl, pH 7.4, 500 mM NaCl, 0.5% triton X-100, 1 mM DTT, 1mM EDTA, 20% glycerol, 0.5 mg/ml lysozyme, 10 mM MgCl2, 15 ug/ml deoxyribonuclease I, and Complete TM protease inhibitor tablets (Roche). After addition of the lysis buffer, frozen cell pellets were resuspended using a tissue homogenizer. To reduce the viscosity of the sample, aliquots of the lysate were sonicated on ice using a microtip attached to a Branson sonicator. The sonicated lysate was centrifuged at 100,000×g for 1 hr at 4° C. and filtered through a 0.2 μm filter unit (Corning).
The protein was purified using two sequential chromatography steps: Heparin sepharose CL-6B and polyU sepharose 4B (Pharmacia). The chromatography buffers were identical to the lysis buffer but contained no lysozyme, deoxyribonuclease I, MgCl2 or protease inhibitor and the NaCl concentration of the buffer was adjusted according to the requirements for charging the protein onto the column. Each column was eluted with a NaCl gradient which varied in length from 5-50 column volumes depending on the column type. After the final chromatography step, the resulting purity of the enzyme is >90% based on SDS-PAGE analysis. The enzyme was aliquoted and stored at −80° C.
Standard HCV NS5B RdRp enzyme assay. HCV RdRp genotype 1b assays were run in a final volume of 60 μl in 96 well plates (Corning 3600). The assay buffer is composed of 20 mM Hepes, pH 7.5, 2.5 mM KCl, 2.5 mM MgCl2, 1 mM DTT, 1.6 U RNAse inhibitor (Promega N2515), 0.01 mg/ml BSA (Sigma B6917), and 2% glycerol. All compounds were serially diluted (3-fold) in DMSO and diluted further in water such that the final concentration of DMSO in the assay was 2%. HCV RdRp genotype 1b enzyme was used at a final concentration of 28 nM. A polyA template was used at 6 nM, and a biotinylated oligo-dT12 primer was used at 180 nM final concentration. Template was obtained commercially (Amersham 27-4110). Biotinylated primer was prepared by Sigma Genosys. 3H-UTP was used at 0.6 μCi (0.29 μM total UTP). Reactions were initiated by the addition of enzyme, incubated at 30° C. for 60 min, and stopped by adding 25 μl of 50 mM EDTA containing SPA beads (4 μg/pl, Amersham RPNQ 0007). Plates were read on a Packard Top Count NXT after >1 hr incubation at room temperature.
Modified HCV NS5B RdRp enzyme assay. A modified enzyme assay was performed essentially as described for the standard enzyme assay except for the following: The biotinylated oligo dT12 primer was precaptured on streptavidin-coated SPA beads by mixing primer and beads in assay buffer and incubating at room temperature for one hour. Unbound primer was removed after centrifugation. The primer-bound beads were resuspended in 20 mM Hepes buffer, pH 7.5 and used in the assay at final concentrations of 20 nM primer and 0.67 μg/μl beads. Order of addition in the assay: enzyme (1.75 nM) was added to diluted compound followed by the addition of a mixture of template (0.36 nM), 3H-UTP (0.6 μCi, 0.29 μM), and primer-bound beads, to initiate the reaction; concentrations given are final. Reactions were allowed to proceed for 4 hours at 30° C.
IC50 values for compounds were determined using seven different [I]. […]

HCV replicon = HCV replicon FRET / luciferase assay; format: cell-based; conditions: Hepatitis C virus; HCV replicon cells; 50% reduction in FRET or luciferase activity; read-out: EC50
Protocol: FRET Assay Preparation. The HCV FRET screening assay was performed in 96-well cell culture plates. The FRET peptide (Anaspec, Inc.) (Taliani et al., Anal. Biochem. 1996, 240, 60-67) contains a fluorescence donor, EDANS, near one end of the peptide and an acceptor, DABCYL, near the other end. The fluorescence of the peptide is quenched by […] resonance energy transfer (RET) between the donor and the acceptor, but as the NS3 protease cleaves the peptide the products are released from RET quenching and the fluorescence of the donor becomes apparent. The assay reagent was made as follows: 5× cell Luciferase cell culture lysis reagent from Promega (#E153A) diluted to 1× with dH2O, NaCl added to 150 mM final, the FRET peptide diluted to 20 μM final from a 2 mM stock.
To prepare plates, HCV replicon cells, with or without a Renilla luciferase reporter gene, were trypsinized and plated in a 96-well plate with titrated test compounds added in columns 3 through 12; columns 1 and 2 contained a control compound (HCV control inhibitor), and the bottom row contained cells with DMSO only. The plates were then placed in a CO2 incubator at 37° C.
Assays. Subsequent to addition of the test compounds described above (FRET Assay Preparation), at various times the plate was removed and Alamar blue solution (Trek Diagnostics, #00-100) was added to measure cellular toxicity. After reading in a Cytoflour 4000 instrument (PE Biosystems), plates were rinsed with PBS and then used for FRET assay by the addition of 30 ul of the FRET peptide assay reagent described above (FRET Assay Preparation) per well. The plate was then placed into the Cytoflour 4000 instrument which had been set to 340 excite/490 emission, automatic mode for up to 20 cycles and the plate read in a kinetic mode. Typically, the signal to noise using an endpoint analysis after the reads was at least three-fold. Alternatively, after Alamar blue reading, plates were rinsed with PBS, then used for luciferase assay using the Promega Dual-Glo Luciferase Assay System or the Promega EnduRen Live Cell Substrate assay.
Compound analysis was performed by quantification of the relative HCV replicon inhibition and the relative cytotoxicity values. To calculate cytoxicity values, the average Alamar Blue fluorescence signals from the control wells were set as 100% non-toxic. The individual signals in each of the compound test wells were then divided by the average control signal and multiplied by 100% to determine […]. To calculate the HCV replicon inhibition values, an average background value was obtained from the two wells containing the highest amount of HCV control inhibitor at the end of the assay period. These numbers were similar to those obtained from naive Huh-7 cells. The background numbers were then subtracted from the average signal obtained from the control wells and this number was used as 100% activity. The individual signals in each of the compound test wells were then divided by the averaged control values after background subtraction and multiplied by 100% to determine percent activity. EC50 values were calculated as the concentration which caused a 50% reduction in FRET or luciferase activity. The two numbers generated for the compound plate, percent cytoxicity and percent activity, were used to determine compounds of interest for further analysis.

T1 sequence (Q9WMX2 2420-2992): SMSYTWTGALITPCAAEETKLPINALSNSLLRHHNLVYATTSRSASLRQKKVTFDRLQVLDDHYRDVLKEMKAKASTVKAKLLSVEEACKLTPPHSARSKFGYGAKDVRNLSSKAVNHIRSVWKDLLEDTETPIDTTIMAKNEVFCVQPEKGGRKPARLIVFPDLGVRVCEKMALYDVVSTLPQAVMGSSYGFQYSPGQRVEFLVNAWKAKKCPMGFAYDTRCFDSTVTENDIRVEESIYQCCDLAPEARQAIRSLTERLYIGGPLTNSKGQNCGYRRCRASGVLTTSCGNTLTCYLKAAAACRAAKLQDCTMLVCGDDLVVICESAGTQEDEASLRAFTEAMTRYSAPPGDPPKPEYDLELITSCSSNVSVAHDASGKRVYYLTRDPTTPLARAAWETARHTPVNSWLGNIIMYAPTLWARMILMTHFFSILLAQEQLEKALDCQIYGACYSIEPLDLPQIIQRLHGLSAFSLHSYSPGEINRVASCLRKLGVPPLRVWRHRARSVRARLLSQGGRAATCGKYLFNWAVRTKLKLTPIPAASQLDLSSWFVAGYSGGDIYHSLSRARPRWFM

Compound	IC50 (HCV NS5B)	EC50 (HCV replicon)
COc1ccc2c(c1)C1CC1(C(=O)N(C)CC(=O)N1CCOCC1)Cn1c-2c(C2CCCCC2)c2ccc(C(=O)NS(=O)(=O)N(C)C)cc21 (centres unmarked)	3 to 1000 nM	3 to 1000 nM
COc1ccc2c(c1)C1CC1(C(=O)N1CCN(c3cnccn3)CC1)Cn1c-2c(C2CCCCC2)c2ccc(C(=O)NS(=O)(=O)C3CC3)cc21 (centres unmarked)	3 to 1000 nM	3 to 1000 nM
COc1ccc2c(c1)C1CC1(C(=O)O[C@@H]1C[C@H](C)CC[C@H]1C(C)C)Cn1c-2c(C2CCCCC2)c2ccc(C(=O)NS(=O)(=O)N(C)C)cc21 (some centres unmarked)	3 to 1000 nM	> 1000 nM
COc1ccc2c(c1)C1CC1(C(=O)N1CCNC(=O)CC1)Cn1c-2c(C2CCCCC2)c2ccc(C(=O)NS(=O)(=O)N(C)C)cc21 (centres unmarked)	3 to 1000 nM	3 to 1000 nM
COc1ccc2c(c1)C1CC1(C(=O)N1CCCN(Cc3ccccc3)CC1)Cn1c-2c(C2CCCCC2)c2ccc(C(=O)NS(=O)(=O)N(C)C)cc21 (centres unmarked)	3 to 1000 nM	3 to 1000 nM
COc1ccc2c(c1)C1CC1(C(=O)N1CCCN(C(C)=O)CC1)Cn1c-2c(C2CCCCC2)c2ccc(C(=O)NS(=O)(=O)N(C)C)cc21 (centres unmarked)	3 to 1000 nM	3 to 1000 nM
COc1ccc2c(c1)C1CC1(C(=O)N1CCNC(c3ccc(F)cc3)C1)Cn1c-2c(C2CCCCC2)c2ccc(C(=O)NS(=O)(=O)N(C)C)cc21 (centres unmarked)	3 to 1000 nM	3 to 1000 nM
COc1ccc(C2CN(C(=O)C34CC3c3cc(OC)ccc3-c3c(C5CCCCC5)c5ccc(C(=O)NS(=O)(=O)N(C)C)cc5n3C4)CCN2)cc1 (centres unmarked)	3 to 1000 nM	3 to 1000 nM
COc1ccc2c(c1)C1CC1(C(=O)N1CCNC(c3ccc(Cl)cc3)C1)Cn1c-2c(C2CCCCC2)c2ccc(C(=O)NS(=O)(=O)N(C)C)cc21 (centres unmarked)	3 to 1000 nM	3 to 1000 nM
COc1ccc2c(c1)C1CC1(C(=O)N1CCCN(Cc3cccnc3)CC1)Cn1c-2c(C2CCCCC2)c2ccc(C(=O)NS(=O)(=O)N(C)C)cc21 (centres unmarked)	3 to 1000 nM	3 to 1000 nM
COc1ccc2c(c1)C1CC1(C(=O)N1CCCN(Cc3cccnc3)CC1)Cn1c-2c(C2CCCCC2)c2ccc(C(=O)NS(=O)(=O)C3CC3)cc21 (centres unmarked)	3 to 1000 nM	3 to 1000 nM
COc1ccc2c(c1)C1CC1(C(=O)N1CCC[C@H]1CN1CCCC1)Cn1c-2c(C2CCCCC2)c2ccc(C(=O)NS(=O)(=O)C3CC3)cc21 (some centres unmarked)	3 to 1000 nM	3 to 1000 nM
COc1ccc2c(c1)C1CC1(C(=O)N1CCCN(C(=O)OC(C)(C)C)CC1)Cn1c-2c(C2CCCCC2)c2ccc(C(=O)NS(=O)(=O)C(C)C)cc21 (centres unmarked)	3 to 1000 nM	3 to 1000 nM
COc1ccc2c(c1)C1CC1(C(=O)N1CCCN(C(=O)OC(C)(C)C)CC1)Cn1c-2c(C2CCCCC2)c2ccc(C(=O)NS(C)(=O)=O)cc21 (centres unmarked)	3 to 1000 nM	3 to 1000 nM
COc1ccc2c(c1)C1CC1(C(=O)N1CCN(C)CC1c1ccccc1)Cn1c-2c(C2CCCCC2)c2ccc(C(=O)NS(C)(=O)=O)cc21 (centres unmarked)	3 to 1000 nM	3 to 1000 nM
COc1ccc2c(c1)C1CC1(C(=O)N1CCCN(Cc3cccnc3)CC1)Cn1c-2c(C2CCCCC2)c2ccc(C(=O)NS(C)(=O)=O)cc21 (centres unmarked)	3 to 1000 nM	3 to 1000 nM
COc1ccc2c(c1)C1CC1(C(=O)N1CCCN(Cc3cccnc3)CC1)Cn1c-2c(C2CCCCC2)c2ccc(C(=O)NS(=O)(=O)N3CCC3)cc21 (centres unmarked)	3 to 1000 nM	3 to 1000 nM
COc1ccc2c(c1)C1CC1(C(=O)N1CCCN(C(=O)OC(C)(C)C)CC1)Cn1c-2c(C2CCCCC2)c2ccc(C(=O)NS(=O)(=O)N3CCC3)cc21 (centres unmarked)	3 to 1000 nM	3 to 1000 nM
COc1ccc2c(c1)C1CC1(C(=O)N1CCN(C)CC1c1ccccc1)Cn1c-2c(C2CCCCC2)c2ccc(C(=O)NS(=O)(=O)N3CCC3)cc21 (centres unmarked)	3 to 1000 nM	3 to 1000 nM
C=CCN1CCN(C(=O)C23CC2c2cc(OC)ccc2-c2c(C4CCCCC4)c4ccc(C(=O)NS(=O)(=O)C(C)C)cc4n2C3)CC1 (centres unmarked)	3 to 1000 nM	3 to 1000 nM
COc1ccc2c(c1)C1CC1(C(=O)N1CCN(C)C[C@@H]1c1ccccc1)Cn1c-2c(C2CCCCC2)c2ccc(C(=O)NS(=O)(=O)C(C)C)cc21 (some centres unmarked)	3 to 1000 nM	3 to 1000 nM
COc1ccc2c(c1)C1CC1(C(=O)N1CCN(C)C[C@H]1c1ccccc1)Cn1c-2c(C2CCCCC2)c2ccc(C(=O)NS(=O)(=O)C(C)C)cc21 (some centres unmarked)	3 to 1000 nM	3 to 1000 nM
COc1ccc2c(c1)C1CC1(C(=O)N1CCN(C)CC1c1ccccc1)Cn1c-2c(C2CCCCC2)c2ccc(C(=O)NS(=O)(=O)N(C)C)cc21 (centres unmarked) [drawing 44]	3 to 1000 nM	3 to 1000 nM
COc1ccc2c(c1)C1CC1(C(=O)N1CCN(C)CC1c1ccccc1)Cn1c-2c(C2CCCCC2)c2ccc(C(=O)NS(=O)(=O)C(C)C)cc21 (centres unmarked) [drawing 74]	3 to 1000 nM	3 to 1000 nM
COc1ccc2c(c1)C1C[C@]1(C(=O)N1CCN(C)CC1c1ccccc1)Cn1c-2c(C2CCCCC2)c2ccc(C(=O)NS(=O)(=O)C(C)C)cc21 (some centres unmarked) [drawing 78]	3 to 1000 nM	3 to 1000 nM
